According to US20080141384A1, “Composition For Screening Anti-Hypertension Drug Comprising Mammal Tctp Gene or Its Protein Product, and Method For Screening Anti-Hypertension Drug Using Said Composition” (EWHA UNIVERSITY INDUSTRY COLLABORATION FOUNDATION, priority 2003, published 2008):

Tests used:
Na/K APTase pump [1] = assay: Na/K APTase pump activity by 86Rb+ uptake in RBL-2H3 cells; type: cell-based; details: 10-20 μg/ml TCTP added, 86Rb+ tracer, versus control without TCTP, FIG. 1a
Protocol: The Na/K APTase pump inhibitory activity of the TCTP protein contained in the inventive composition was examined. As it was already known that TCTP interacts with the Na/K APTase pump, a test was performed to examine if the interaction has any effect on the activity of the Na/K APTase pump inhibitory activity.
RBL-2H3 cells were cultured at a suitable density and washed three times with Krebs-Ringer buffer (KRP, 140 mM NaCl, 5 mM KCl, 10 mM Na2HPO4, 1 mM MgSO4, 1.4 mM CaCl2, 2.5 mM glucose, pH 7.4). Subsequently, the cells were incubated at 37° C. for 15 minutes, and added with 0.1% BSA-containing KRP buffer containing 1 mM ouabain.
To measure the transport of K^+ ions caused by the Na/K APTase pump, cultivation was performed for 5-10 minutes using an ^86Rb^+([…], NEN) tracer having high sensitivity to ouabain, and 10-20 μg/ml TCTP was added. Also, a control group to which TCTP had not been added was prepared.

Na/K APTase pump [2] = assay: FACS analysis of intracellular Na+ using a Na-sensitive dye; type: cell-based; details: FACS with Na-sensitive dye, versus control group (Mock); FIG. 1b
Protocol: To confirm the above results again, FACS analysis was performed using a Na-sensitive dye.

Na/K-ATPase pump = assay: cell-based or functional assay

| Substance | activity of the Na/K APTase pump (reduced to) (Na/K APTase pump [1]) [%] | intracellular Na+ concentration (Na/K APTase pump [2]) | activity of the Na/K APTase pump (ouabain-sensitive 86Rb+ uptake in RBL-2H3 cells, 10-20 ug/ml TCTP against a control without TCTP) (Na/K-ATPase pump) [%] |
| --- | --- | --- | --- |
| TCTP: Translationally controlled tumor protein (IgE-dependent histamine-releasing factor), amino acid sequence of SEQ ID NO: 2; cytoplasmic inhibitor of the Na/K-ATPase pump | 53.5 | increased the intracellular Na^+ concentration | – |
| Translationally controlled tumor protein (TCTP) (from UniProt P13693 1-172) | – | – | 53.5 |
